Patent publication US6914045B2, “Glycopeptide antibiotics” (Wyeth Holdings Corporation, priority 2001, dated 2005)
Values after ≈ are worked out from the molar mass of the structure shown.

How the values were obtained:
Test in all cases: in vitro antibacterial evaluation, MIC by broth dilution
Type in all cases: cell-based
Enterococcus sp. = details: broth dilution, 18 hours at 35° C.; for MIC Enterococcus faecalis (ATCC 29212): strain ATCC 29212; for MIC Enterococcus faecalis (GC 2242): strain GC 2242; for MIC Enterococcus faecium (GC 2243): strain GC 2243; for MIC Enterococcus faecalis (GC 2691): strain GC 2691; for MIC Enterococcus faecalis (GC 3059): strain GC 3059; for MIC Enterococcus faecalis (GC 4552): strain GC 4552; for MIC Enterococcus faecalis (GC 4553): strain GC 4553; for MIC Enterococcus faecalis (GC 4554): strain GC 4554; for MIC Enterococcus faecium (GC 4556): strain GC 4556; for MIC Enterococcus faecium (GC 4557): strain GC 4557; for MIC Enterococcus avium (GC 4558): strain GC 4558; for MIC Enterococcus faecalis (GC 6189): strain GC 6189
Summary of the method: (§1)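 Test organisms, which included recent clinical isolates resistant to methicillin, penicillin and/or vancomycin, were inoculated at 5×10^5 CFU/mL into Muller-Hinton II […] containing antibiotic at 64-0.06 μg/mL. Minimum inhibitory concentrations were then read as the lowest level inhibiting growth.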

Streptococcus sp. = details: broth dilution, 18 hours at 35° C.; for MIC Streptococcus pneumoniae (ATCC 6301): strain ATCC 6301; for MIC Streptococcus pneumoniae (GC 1894): strain GC 1894; for MIC Streptococcus pyogenes (GC 4563): strain GC 4563; for MIC Streptococcus agalactiae (GC 4564): strain GC 4564; for MIC Streptococcus pneumoniae (GC 4565): strain GC 4565
Summary of the method: as §1

Staphylococcus sp. = details: broth dilution, 18 hours at 35° C.; for MIC Staphylococcus aureus (ATCC 29213): strain ATCC 29213; for MIC Staphylococcus aureus (GC 1131): strain GC 1131; for MIC Staphylococcus aureus (GC 3051): strain GC 3051; for MIC Staphylococcus aureus (GC 3053): strain GC 3053; for MIC Staphylococcus aureus (GC 4541): strain GC 4541; for MIC Staphylococcus aureus (GC 4542): strain GC 4542; for MIC Staphylococcus aureus-SMITH (GC 4543): strain GC 4543; for MIC Staphylococcus aureus (GC 4544): strain GC 4544; for MIC Staphylococcus aureus (GC 4545): strain GC 4545; for MIC Staphylococcus haemolyticus (GC 4546): strain GC 4546; for MIC Coagulase Negative Staphylococcus (GC 4547): strain GC 4547; for MIC Coagulase Negative Staphylococcus (GC 4548): strain GC 4548; for MIC Coagulase Negative Staphylococcus (GC 4549): strain GC 4549; for MIC Coagulase Negative Staphylococcus (GC 4551): strain GC 4551; for MIC Coagulase Negative Staphylococcus (GC 6257): strain GC 6257
Summary of the method: as §1

Escherichia coli = details: broth dilution, 18 hours at 35° C.; for MIC Escherichia coli (ATCC 25922): strain ATCC 25922; for MIC Escherichia coli (GC 4559): strain GC 4559; for MIC Escherichia coli (GC 4560): strain GC 4560
Summary of the method: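 MIC is the lowest antibiotic concentration (tested 64-0.06 μg/mL) preventing growth of a 5×10^5 CFU/mL inoculum. Determined by broth dilution in Mueller-Hinton II medium following NCCLS standard M7-A2.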

SMILES | MIC Enterococcus faecalis (ATCC 29212) (Enterococcus sp.) | MIC Enterococcus faecalis (GC 2242) (Enterococcus sp.) | MIC Enterococcus faecium (GC 2243) (Enterococcus sp.) | MIC Enterococcus faecalis (GC 2691) (Enterococcus sp.) | MIC Enterococcus faecalis (GC 3059) (Enterococcus sp.) | MIC Enterococcus faecalis (GC 4552) (Enterococcus sp.) | MIC Enterococcus faecalis (GC 4553) (Enterococcus sp.) | MIC Enterococcus faecalis (GC 4554) (Enterococcus sp.) | MIC Enterococcus faecium (GC 4556) (Enterococcus sp.) | MIC Enterococcus faecium (GC 4557) (Enterococcus sp.) | MIC Enterococcus avium (GC 4558) (Enterococcus sp.) | MIC Enterococcus faecalis (GC 6189) (Enterococcus sp.) | MIC Streptococcus pneumoniae (ATCC 6301) (Streptococcus sp.) | MIC Streptococcus pneumoniae (GC 1894) (Streptococcus sp.) | MIC Streptococcus pyogenes (GC 4563) (Streptococcus sp.) | MIC Streptococcus agalactiae (GC 4564) (Streptococcus sp.) | MIC Streptococcus pneumoniae (GC 4565) (Streptococcus sp.) | MIC Staphylococcus aureus (ATCC 29213) (Staphylococcus sp.) | MIC Staphylococcus aureus (GC 1131) (Staphylococcus sp.) | MIC Staphylococcus aureus (GC 3051) (Staphylococcus sp.) | other results
CC(c1ccccc1)C1NC(=O)CNC(=O)C(CO)NC(=O)C(C(O)C2CNC(=N)N2C2OC(CO)C(O)C(O)C2O)NC(=O)C(C(O)C2CNC(=N)N2)NC(=O)C(Cc2ccc3oc(=O)[nH]c3c2)NC1=O (stereo not drawn) [Example 22, Cyclo[3-(2,3-dihydro-2-oxo-1,3-benzoxazol-5-yl)alanyl-3-(2-iminoimidazolidin-4-yl)seryl-3-(3-hexopyranosyl-2-iminoimidazolidin-4-yl)serylserylglycyl-β-methylphenylalanyl]] | >128 µg/mL | >128 µg/mL | >128 µg/mL | >128 µg/mL | >128 µg/mL | >128 µg/mL | >128 µg/mL | >128 µg/mL | >128 µg/mL | 64 µg/mL (≈ 63.2 µM) | >128 µg/mL | >128 µg/mL | 8 µg/mL (≈ 7.91 µM) | 8 µg/mL (≈ 7.91 µM) | 32 µg/mL (≈ 31.6 µM) | 32 µg/mL (≈ 31.6 µM) | 8 µg/mL (≈ 7.91 µM) | >128 µg/mL | >128 µg/mL | >128 µg/mL | MIC Staphylococcus aureus (GC 3053) (Staphylococcus sp.): >128 µg/mL; MIC Staphylococcus aureus (GC 4541) (Staphylococcus sp.): >128 µg/mL; MIC Staphylococcus aureus (GC 4542) (Staphylococcus sp.): >128 µg/mL; MIC Staphylococcus aureus-SMITH (GC 4543) (Staphylococcus sp.): >128 µg/mL; MIC Staphylococcus aureus (GC 4544) (Staphylococcus sp.): >128 µg/mL; MIC Staphylococcus aureus (GC 4545) (Staphylococcus sp.): >128 µg/mL; MIC Staphylococcus haemolyticus (GC 4546) (Staphylococcus sp.): >128 µg/mL; MIC Coagulase Negative Staphylococcus (GC 4547) (Staphylococcus sp.): >128 µg/mL; MIC Coagulase Negative Staphylococcus (GC 4548) (Staphylococcus sp.): 128 µg/mL (≈ 126 µM); MIC Coagulase Negative Staphylococcus (GC 4549) (Staphylococcus sp.): 64 µg/mL (≈ 63.2 µM); MIC Coagulase Negative Staphylococcus (GC 4551) (Staphylococcus sp.): >128 µg/mL; MIC Coagulase Negative Staphylococcus (GC 6257) (Staphylococcus sp.): 128 µg/mL (≈ 126 µM); MIC Escherichia coli (ATCC 25922) (Escherichia coli): >128 µg/mL; MIC Escherichia coli (GC 4559) (Escherichia coli): >128 µg/mL; MIC Escherichia coli (GC 4560) (Escherichia coli): >128 µg/mL
CC(c1ccccc1)C1NC(=O)CNC(=O)C(CO)NC(=O)C(C(O)C2CNC(=N)N2C2OC(CO)C(O)C(O)C2O)NC(=O)C(C(O)C2CNC(=N)N2)NC(=O)C(Cc2ccc3oc(-c4ccc(C(C)(C)C)cc4)nc3c2)NC1=O (stereo not drawn) [Example 32, Cyclo[3-[2-(4-tert-butylphenyl)-1,3-benzoxazol-5-yl]alanyl-3-(2-iminoimidazolidin-4-yl)seryl-3-(3-hexopyranosyl-2-iminoimidazolidin-4-yl)serylserylglycyl-β-methylphenylalanyl]] | 8 µg/mL (≈ 7.09 µM) | 4 µg/mL (≈ 3.55 µM) | 4 µg/mL (≈ 3.55 µM) | 8 µg/mL (≈ 7.09 µM) | 8 µg/mL (≈ 7.09 µM) | 8 µg/mL (≈ 7.09 µM) | 8 µg/mL (≈ 7.09 µM) | 4 µg/mL (≈ 3.55 µM) | 8 µg/mL (≈ 7.09 µM) | 2 µg/mL (≈ 1.77 µM) | 4 µg/mL (≈ 3.55 µM) | 4 µg/mL (≈ 3.55 µM) | 16 µg/mL (≈ 14.2 µM) | 16 µg/mL (≈ 14.2 µM) | 8 µg/mL (≈ 7.09 µM) | 16 µg/mL (≈ 14.2 µM) | 16 µg/mL (≈ 14.2 µM) | 4 µg/mL (≈ 3.55 µM) | 2 µg/mL (≈ 1.77 µM) | 2 µg/mL (≈ 1.77 µM) | MIC Staphylococcus aureus (GC 3053) (Staphylococcus sp.): 4 µg/mL (≈ 3.55 µM); MIC Staphylococcus aureus (GC 4541) (Staphylococcus sp.): 2 µg/mL (≈ 1.77 µM); MIC Staphylococcus aureus (GC 4542) (Staphylococcus sp.): 2 µg/mL (≈ 1.77 µM); MIC Staphylococcus aureus-SMITH (GC 4543) (Staphylococcus sp.): 2 µg/mL (≈ 1.77 µM); MIC Staphylococcus aureus (GC 4544) (Staphylococcus sp.): 2 µg/mL (≈ 1.77 µM); MIC Staphylococcus aureus (GC 4545) (Staphylococcus sp.): 2 µg/mL (≈ 1.77 µM); MIC Staphylococcus haemolyticus (GC 4546) (Staphylococcus sp.): 2 µg/mL (≈ 1.77 µM); MIC Coagulase Negative Staphylococcus (GC 4547) (Staphylococcus sp.): 2 µg/mL (≈ 1.77 µM); MIC Coagulase Negative Staphylococcus (GC 4548) (Staphylococcus sp.): 1 µg/mL (≈ 0.886 µM); MIC Coagulase Negative Staphylococcus (GC 4549) (Staphylococcus sp.): 2 µg/mL (≈ 1.77 µM); MIC Coagulase Negative Staphylococcus (GC 4551) (Staphylococcus sp.): 4 µg/mL (≈ 3.55 µM); MIC Coagulase Negative Staphylococcus (GC 6257) (Staphylococcus sp.): 2 µg/mL (≈ 1.77 µM); MIC Escherichia coli (ATCC 25922) (Escherichia coli): 16 µg/mL (≈ 14.2 µM); MIC Escherichia coli (GC 4559) (Escherichia coli): 16 µg/mL (≈ 14.2 µM); MIC Escherichia coli (GC 4560) (Escherichia coli): 4 µg/mL (≈ 3.55 µM)
